Assay results reported in US6914045B2, “Glycopeptide antibiotics” (Wyeth Holdings Corporation, priority 2001, dated 2005).
≈ marks a conversion by molar mass, not a printed value.

Assays:
Experiment in all cases: in vitro antibacterial evaluation, MIC by broth dilution
Type in all cases: cell-based
Enterococcus sp. = details: broth dilution, 18 hours at 35° C.
In short: (§1)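 MIC, the lowest antibiotic concentration preventing growth, was read across 64-0.06 μg/mL with 5×10^5 CFU/mL inoculum. Method followed NCCLS M7-A2 broth dilution using Mueller-Hinton II; Gram-positive strains covered recent methicillin-, penicillin- and/or vancomycin-resistant clinical isolates.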

Staphylococcus sp. = details: broth dilution, 18 hours at 35° C.
In short: as §1

Streptococcus sp. = details: broth dilution, 18 hours at 35° C.
In short: as §1

Escherichia coli = details: 18 hours at 35° C.

- MIC Enterococcus avium (GC 4558) (Enterococcus sp.): 64 mg/L (≈ 43.8 µM)
- MIC Enterococcus faecalis (ATCC 29212) (Enterococcus sp.): >128 mg/L
- MIC Enterococcus faecalis (GC 2242) (Enterococcus sp.): >128 mg/L
- MIC Enterococcus faecalis (GC 2691) (Enterococcus sp.): >128 mg/L
- MIC Enterococcus faecalis (GC 3059) (Enterococcus sp.): >128 mg/L
- MIC Enterococcus faecalis (GC 4552) (Enterococcus sp.): >128 mg/L
- MIC Enterococcus faecalis (GC 4553) (Enterococcus sp.): 128 mg/L (≈ 87.7 µM)
- MIC Enterococcus faecalis (GC 4554) (Enterococcus sp.): >128 mg/L
- MIC Enterococcus faecalis (GC 6189) (Enterococcus sp.): >128 mg/L
- MIC Enterococcus faecium (GC 2243) (Enterococcus sp.): >128 mg/L
- MIC Enterococcus faecium (GC 4556) (Enterococcus sp.): >128 mg/L
- MIC Enterococcus faecium (GC 4557) (Enterococcus sp.): 128 mg/L (≈ 87.7 µM)
- MIC Enterococcus faecalis (ATCC 29212) (Enterococcus sp.; strain ATCC 29212): >128 mg/L
- MIC Enterococcus faecalis (GC 2242) (Enterococcus sp.; strain GC 2242): >128 mg/L
- MIC Enterococcus faecium (GC 2243) (Enterococcus sp.; strain GC 2243): >128 mg/L
- MIC Enterococcus faecalis (GC 2691) (Enterococcus sp.; strain GC 2691): >128 mg/L
- MIC Enterococcus faecalis (GC 3059) (Enterococcus sp.; strain GC 3059): >128 mg/L
- MIC Enterococcus faecalis (GC 4552) (Enterococcus sp.; strain GC 4552): >128 mg/L
- MIC Enterococcus faecalis (GC 4553) (Enterococcus sp.; strain GC 4553): 128 mg/L (≈ 87.7 µM)
- MIC Enterococcus faecalis (GC 4554) (Enterococcus sp.; strain GC 4554): >128 mg/L
- MIC Enterococcus faecium (GC 4556) (Enterococcus sp.; strain GC 4556): >128 mg/L
- MIC Enterococcus faecium (GC 4557) (Enterococcus sp.; strain GC 4557): 128 mg/L (≈ 87.7 µM)
- MIC Enterococcus avium (GC 4558) (Enterococcus sp.; strain GC 4558): 64 mg/L (≈ 43.8 µM)
- MIC Enterococcus faecalis (GC 6189) (Enterococcus sp.; strain GC 6189): >128 mg/L
- MIC Coagulase Negative Staphylococcus (GC 4547) (Staphylococcus sp.): >128 mg/L
- MIC Coagulase Negative Staphylococcus (GC 4548) (Staphylococcus sp.): >128 mg/L
- MIC Coagulase Negative Staphylococcus (GC 4549) (Staphylococcus sp.): >128 mg/L
- MIC Coagulase Negative Staphylococcus (GC 4551) (Staphylococcus sp.): >128 mg/L
- MIC Coagulase Negative Staphylococcus (GC 6257) (Staphylococcus sp.): >128 mg/L
- MIC Staphylococcus aureus (ATCC 29213) (Staphylococcus sp.): >128 mg/L
- MIC Staphylococcus aureus (GC 1131) (Staphylococcus sp.): >128 mg/L
- MIC Staphylococcus aureus (GC 3051) (Staphylococcus sp.): >128 mg/L
- MIC Staphylococcus aureus (GC 3053) (Staphylococcus sp.): >128 mg/L
- MIC Staphylococcus aureus (GC 4541) (Staphylococcus sp.): >128 mg/L
- MIC Staphylococcus aureus (GC 4542) (Staphylococcus sp.): >128 mg/L
- MIC Staphylococcus aureus (GC 4544) (Staphylococcus sp.): >128 mg/L
- MIC Staphylococcus aureus (GC 4545) (Staphylococcus sp.): >128 mg/L
- MIC Staphylococcus aureus-SMITH (GC 4543) (Staphylococcus sp.): >128 mg/L
- MIC Staphylococcus aureus (ATCC 29213) (Staphylococcus sp.; strain ATCC 29213): >128 mg/L
- MIC Staphylococcus aureus (GC 1131) (Staphylococcus sp.; strain GC 1131): >128 mg/L
- MIC Staphylococcus aureus (GC 3051) (Staphylococcus sp.; strain GC 3051): >128 mg/L
- MIC Staphylococcus aureus (GC 3053) (Staphylococcus sp.; strain GC 3053): >128 mg/L
- MIC Staphylococcus aureus (GC 4541) (Staphylococcus sp.; strain GC 4541): >128 mg/L
- MIC Staphylococcus aureus (GC 4542) (Staphylococcus sp.; strain GC 4542): >128 mg/L
- MIC Staphylococcus aureus-SMITH (GC 4543) (Staphylococcus sp.; strain GC 4543): >128 mg/L
- MIC Staphylococcus aureus (GC 4544) (Staphylococcus sp.; strain GC 4544): >128 mg/L
- MIC Staphylococcus aureus (GC 4545) (Staphylococcus sp.; strain GC 4545): >128 mg/L
- MIC Coagulase Negative Staphylococcus (GC 4547) (Staphylococcus sp.; strain GC 4547): >128 mg/L
- MIC Coagulase Negative Staphylococcus (GC 4548) (Staphylococcus sp.; strain GC 4548): >128 mg/L
- MIC Coagulase Negative Staphylococcus (GC 4549) (Staphylococcus sp.; strain GC 4549): >128 mg/L
- MIC Coagulase Negative Staphylococcus (GC 4551) (Staphylococcus sp.; strain GC 4551): >128 mg/L
- MIC Coagulase Negative Staphylococcus (GC 6257) (Staphylococcus sp.; strain GC 6257): >128 mg/L
- MIC Streptococcus agalactiae (GC 4564) (Streptococcus sp.): >128 mg/L
- MIC Streptococcus pneumoniae (ATCC 6301) (Streptococcus sp.): 128 mg/L (≈ 87.7 µM)
- MIC Streptococcus pneumoniae (GC 1894) (Streptococcus sp.): 64 mg/L (≈ 43.8 µM)
- MIC Streptococcus pneumoniae (GC 4565) (Streptococcus sp.): 128 mg/L (≈ 87.7 µM)
- MIC Streptococcus pyogenes (GC 4563) (Streptococcus sp.): >128 mg/L
- MIC Streptococcus pneumoniae (ATCC 6301) (Streptococcus sp.; strain ATCC 6301): 128 mg/L (≈ 87.7 µM)
- MIC Streptococcus pneumoniae (GC 1894) (Streptococcus sp.; strain GC 1894): 64 mg/L (≈ 43.8 µM)
- MIC Streptococcus pyogenes (GC 4563) (Streptococcus sp.; strain GC 4563): >128 mg/L
- MIC Streptococcus agalactiae (GC 4564) (Streptococcus sp.; strain GC 4564): >128 mg/L
- MIC Streptococcus pneumoniae (GC 4565) (Streptococcus sp.; strain GC 4565): 128 mg/L (≈ 87.7 µM)
- MIC Escherichia coli (ATCC 25922) (Escherichia coli): >128 mg/L
- MIC Escherichia coli (GC 4559) (Escherichia coli): >128 mg/L
- MIC Escherichia coli (GC 4560) (Escherichia coli): 32 mg/L (≈ 21.9 µM)
SMILES: CC(c1ccccc1)C1NC(=O)CNC(=O)C(CO)NC(=O)C(CC2CNC(=N)N2C2OC(CO)C(O)C(O)C2O)NC(=O)C(CC2CNC(=N)N2)NC(=O)C(Cc2ccc(OC3OC(CO)C(OC4OC(CO)C(O)C(O)C4OCc4ccc(OCc5ccccc5)cc4)C(O)C3O)cc2)NC1=O (stereo not shown) [Example 246c]
- MIC Staphylococcus haemolyticus (GC 4546) (Staphylococcus sp.): >128 mg/L
- MIC Staphylococcus haemolyticus (GC 4546) (Staphylococcus sp.; strain GC 4546): >128 mg/L
